Results: US20230059136A1, “THE COMPOUNDS AND COMPOSITIONS FOR TREATING CONDITIONS ASSOCIATED WITH NLRP ACTIVITY” (Novartis AG, priority 2018, published 2023)
Read-outs that look alike come from different tables or passages of the source.

Tested on: IL-1β production in PMA-differentiated THP-1 cells
Assay: IL-1β production in PMA-differentiated THP-1 cells stimulated with gramicidin (hTHP-1 assay containing 2% fetal bovine serum)
Type: cell-based, human
Details: 2% fetal bovine serum, read-out: hTHP-1 IC50 (Average IC50 of compounds in hTHP-1 assay)
Outline: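 THP-1 cells were differentiated with PMA 20 ng/ml for 16-18 h, then plated at 50,000 cells/well in RPMI with 2% FBS. They were preincubated 1 h with compound (100–0.0017 μM final, 0.37% DMSO), then stimulated with gramicidin 5 μM for 2 h. Supernatant IL-1β was measured by HTRF.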

[1] = Homo sapiens, THP-1, Table B2, cells printed as numeric bound
[2] = Homo sapiens, THP-1, Table B1, cells printed as numeric bound
[3] = Homo sapiens, THP-1, Table B1, class symbols
[4] = Homo sapiens, THP-1, Table B2, class symbols

CC(C)c1cc(OC(F)F)cc(C(C)C)c1CC(=O)N=S(N)(=O)c1cnc(C(C)(C)O)s1 (single isomer, unassigned) [Example 48, (S)- or (R)-2-(4-(difluoromethoxy)-2,6-diisopropylphenyl)-N-(2-(2-hydroxypropan-2-yl)thiazol-5-ylsulfonimidoyl)acetamide]
IC50 (Table B1, class symbols): 40 to 200 nM

CC(C)c1nc(C(F)(F)F)nc(C(C)C)c1CC(=O)N=S(N)(=O)c1cnc(C(C)(C)O)s1 (single isomer, unassigned) [Example 397, (R) or (S)-N-(amino(2-(2-hydroxypropan-2-yl)thiazol-5-yl)(oxo)-λ^6-sulfaneylidene)-2-(4,6-diisopropyl-2-(trifluoromethyl)pyrimidin-5-yl)acetamide]
IC50 [1]: > 30000 nM

CC(C)c1cc2c(c(C(C)C)c1CC(=O)N=S(N)(=O)c1ccc(C(C)(C)O)cc1)COC2 (single isomer, unassigned) [Example 302, (S) or (R)-N-(amino(4-(2-hydroxypropan-2-yl)phenyl)(oxo)-λ^6-sulfaneylidene)-2-(4,6-diisopropyl-1,3-dihydroisobenzofuran-5-yl)acetamide]
IC50 [2]: > 30000 nM

CC(C)c1cc(COC2CCCC2)cc(C(C)C)c1CC(=O)N=S(N)(=O)c1cc(C(C)(C)O)n(-c2ccc(F)cc2)n1 (single isomer, unassigned) [Example 283, (R) or (S)-N-(amino(1-(4-fluorophenyl)-5-(2-hydroxypropan-2-yl)-1H-pyrazol-3-yl)(oxo)-λ^6-sulfaneylidene)-2-(4-((cyclopentyloxy)methyl)-2,6-diisopropylphenyl) acetamide]
IC50 [3]: 200 to 1000 nM

CCn1cc(F)c(S(N)(=O)=NC(=O)Cc2c(C(C)C)cc3c(c2C(C)C)COC3)n1 (single isomer, unassigned) [Example 399, (S) or (R)-N-(amino(1-ethyl-4-fluoro-1H-pyrazol-3-yl)(oxo)-λ^6-sulfaneylidene)-2-(4,6-diisopropyl-1,3-dihydroisobenzofuran-5-yl)acetamide]
IC50 [1]: > 30000 nM

CC(C)c1cc(F)cc(C(C)C)c1CC(=O)N=[S@@](=O)(NC#N)c1sc(C(C)(C)O)nc1CO [Example 368, (R)-N-(cyanamido(4-(hydroxymethyl)-2-(2-hydroxypropan-2-yl)thiazol-5-yl)(oxo)-λ^6-sulfaneylidene)-2-(4-fluoro-2,6-diisopropylphenyl)acetamide]
IC50 [4]: 40 to 200 nM

CC(C)c1ccc(C#N)c(C(C)C)c1CC(=O)N=S(N)(=O)c1nc(C(C)(C)O)cs1 (single isomer, unassigned) [Example 179, (R) or (S)-N-(amino(4-(2-hydroxypropan-2-yl)thiazol-2-yl)(oxo)-λ^6-sulfaneylidene)-2-(3-cyano-2,6-diisopropylphenyl) acetamide]
IC50 (Table B1, class symbols): 200 to 1000 nM

CC(C)c1cc(C#N)cc(C(C)C)c1CC(=O)N=[S@@](=O)(NC#N)c1sc(C(C)(C)O)nc1CO [Example 366, (R)-N-(cyanamido(4-(hydroxymethyl)-2-(2-hydroxypropan-2-yl)thiazol-5-yl)(oxo)-λ^6-sulfaneylidene)-2-(4-cyano-2,6-diisopropylphenyl)acetamide]
IC50 [4]: 5000 to 30000 nM

CC(C)c1cc(COC2CCCC2)cc(C(C)C)c1CC(=O)N=S(N)(=O)c1cnc(C(C)(C)O)s1 (single isomer, unassigned) [Example 287, (R) or (S)-N-(amino(2-(2-hydroxypropan-2-yl)thiazol-5-yl)(oxo)-λ^6-sulfaneylidene)-2-(4-((cyclopentyloxy)methyl)-2,6-diisopropylphenyl) acetamide]
IC50 [3]: 40 to 200 nM

CC(C)c1ncnc(C(C)C)c1CC(=O)N=S(N)(=O)c1cnc(C(C)(C)O)s1 (stereo not drawn) [Compound 260]
IC50 [2]: > 30000 nM

CC(C)c1cc(-c2ccc3c(c2)CCOC3)cc(C(C)C)c1CC(=O)N=S(N)(=O)c1sc(C(C)(C)O)nc1CO (stereo not drawn) [Example 137, N-(amino(4-(hydroxymethyl)-2-(2-hydroxypropan-2-yl)thiazol-5-yl)(oxo)-λ^6-sulfaneylidene)-2-(4-(isochroman-6-yl)-2,6-diisopropylphenyl)acetamide]
IC50 [3]: 200 to 1000 nM

CC(C)c1cc(C#N)c(F)c(C(C)C)c1CC(=O)N=S(N)(=O)c1cnc(C(C)(O)CO)s1 (stereo not drawn) [Example 238, N-(amino(2-(1,2-dihydroxypropan-2-yl)thiazol-5-yl)(oxo)-λ^6-sulfaneylidene)-2-(4-cyano-3-fluoro-2,6-diisopropylphenyl) acetamide]
IC50 [3]: 1000 to 5000 nM

CC(C)c1ncnc(C(C)C)c1CC(=O)N=S(N)(=O)c1cnc(C(C)(C)O)s1 (stereo not drawn) [Example 392, N-(amino(2-(2-hydroxypropan-2-yl)thiazol-5-yl)(oxo)-λ^6-sulfaneylidene)-2-(4,6-diisopropylpyrimidin-5-yl)acetamide]
IC50 [1]: > 30000 nM

CC(C)c1cc(F)cc(C(C)C)c1CC(=O)N=[S@](=O)(NC#N)c1sc(C(C)(C)O)nc1CO [Example 369, (S)-N-(cyanamido(4-(hydroxymethyl)-2-(2-hydroxypropan-2-yl)thiazol-5-yl)(oxo)-λ^6-sulfaneylidene)-2-(4-fluoro-2,6-diisopropylphenyl)acetamide]
IC50 [4]: 5000 to 30000 nM

CCc1c2c(cc(C(C)C)c1CC(=O)N=S(N)(=O)c1cnc(C(C)(C)O)s1)COC2 (single isomer, unassigned) [Example 290, (S) or (R)-N-(amino(2-(2-hydroxypropan-2-yl)thiazol-5-yl)(oxo)-λ^6-sulfaneylidene)-2-(4-ethyl-6-isopropyl-1,3-dihydroisobenzofuran-5-yl)acetamide]
IC50 [2]: > 30000 nM

CC(C)c1cc(C#N)c(F)c(C(C)C)c1CC(=O)N=S(N)(=O)c1ncc(C(C)(C)O)s1 (single isomer, unassigned) [Example 43]
IC50 (Table B1, class symbols): 1000 to 5000 nM

COc1ccc(C(C)(C)O)cc1[S@](=O)(=NC(=O)Cc1c(C(C)C)cc(C#N)cc1C(C)C)NC#N [Example 377, (S)-N-(cyanamido(5-(2-hydroxypropan-2-yl)-2-methoxyphenyl)(oxo)-λ^6-sulfaneylidene)-2-(4-cyano-2,6-diisopropylphenyl)acetamide]
IC50 [1]: > 30000 nM

CC(C)c1cc2c(c(C(C)C)c1CC(=O)N=S(=O)(NC#N)c1cc(C(C)(C)O)cs1)COC2 (stereo in doubt) [Example 344, (R)-N-(cyanamido(4-(2-hydroxypropan-2-yl)thiophen-2-yl)(oxo)-λ^6-sulfaneylidene)-2-(4,6-diisopropyl-1,3-dihydroisobenzofuran-5-yl)acetamide]
IC50 [3]: 200 to 1000 nM

CC(C)c1cc(-c2ccc3ccccc3c2)cc(C(C)C)c1CC(=O)N=S(N)(=O)c1cnc(C(C)(C)O)s1 (single isomer, unassigned) [Example 164, (S) or (R)-N-(amino(2-(2-hydroxypropan-2-yl)thiazol-5-yl)(oxo)-λ^6-sulfaneylidene)-2-(2,6-diisopropyl-4-(naphthalen-2-yl)phenyl) acetamide]
IC50 (Table B1, class symbols): 1000 to 5000 nM

CC(C)c1cc(C#N)cc(C(C)C)c1CC(=O)N=S(N)(=O)c1sc(C(C)(C)O)nc1CCO (single isomer, unassigned) [Example 383, (R) or (S)-N-(amino(4-(2-hydroxyethyl)-2-(2-hydroxypropan-2-yl)thiazol-5-yl)(oxo)-λ^6-sulfaneylidene)-2-(4-cyano-2,6-diisopropylphenyl)acetamide]
IC50 (Table B2, class symbols): 200 to 1000 nM

2-(4-Fluoro-2,6-diisopropylphenyl)-N-(4-(2-hydroxypropan-2-yl)phenylsulfonimidoyl)acetamide [Example 1]
IC50 (Table B1, class symbols): 5000 to 30000 nM
